Test results from US6001597A, “Compositions and methods for producing heterologous polypeptides in Pichia methanolica” (ZymoGenetics, Inc., priority 1998, dated 1999).

Tested on: P. mathanolica cells (strain CBS6515, UV-mutagenized)
Test: Nystatin enrichment for auxotrophic mutants: titering of colony forming units, nystatin-treated versus control cells
Format: cell-based, Pichia methanolica
Settings: 1 mg nystatin added to remainder of 500 ml culture in minimal broth with 5 g/L ammonium sulfate, incubated one additional hour; versus control cells without nystatin
Method: The cells are then transferred to a culture medium deficient in assimilable nitrogen so that cellular nitrogen stores are depleted. By "deficient in assimilable nitrogen" it is meant that the medium lacks an amount of nitrogen sufficient to support growth of the cells. Depletion of cellular nitrogen stores will generally require about 12 to 24 hours of incubation, with 16 hours being sufficient under common conditions. Following depletion of nitrogen stores, the cells are cultured in a defined culture medium comprising an inorganic nitrogen source and an amount of an antifungal antibiotic sufficient to kill growing P. mathanolica cells. The antibiotic nystatin (mycostatin) is particularly preferred. Preferred inorganic nitrogen sources are those comprising ammonium ions, such as ammonium sulfate. In general, the medium will contain 10-200 mM ammonium, preferably about 60 mM ammonium. Nystatin is included at a concentration of 0.1 to 100 mg/l, preferably 0.5 to 20 mg/L, more preferably about 2 mg/L ([…]). […] Those skilled in the art will recognize that the actual antibiotic concentration and exposure time required to kill prototrophic cells can be readily determined empirically,and certain adjustments may be necessary to compensate for variations in specific activity between individual batches of antibiotic. […]

For `C[C@@H]1[C@H](O)[C@@H](C)/C=C/C=C/CC/C=C/C=C/C=C/C=C/C(O[C@H]2O[C@H](C)[C@@H](O)[C@H](N)[C@@H]2O)CC2O[C@](O)(CC(O)C(O)CCC(O)CC(O)CC(O)CC(=O)O[C@H]1C)CC(O)C2C(=O)O` (stereo partly shown) [nystatin], which “decrease in the number of viable cells (colony forming units), factor” value is on record?
The value was 10^4.
